# Data: patent US20230099696A1, “NANO-COMPOSITE MICROPARTICLES OF POLYMYXIN” (Purdue Research Foundation, priority 2020, published 2023)
# Key:
# [1] = test system: Staphylococcus aureus (SA); conditions: against SA; cited from earlier work
# [2] = test system: Pseudomonas aeruginosa (PA); conditions: when combined with polymyxin B; cited from earlier work
# [3] = Crystallinity by powder X-ray diffraction (PXRD); assay type: physicochemical; conditions: state of Iva, FIG. 1B, 3A, 3B
# Procedure: Crystalline state of the optimal Iva-BSA-NPs and the physical mixture (PM) of BSA and Iva were characterized by the powder X-ray diffraction (PXRD, SmartLabTM diffractometer, Rigaku Americas, Austin, USA) with Cu-Kα radiation source, operating at 40 kV and 44 mA . The scanning 2θ range was set as 5 to 60° with a scanning rate of 5°/min ([…] et al., 2018a). Crystalline state of co-delivery microparticles and the PM of BSA, Iva, Col and L-leucine were characterized by PXRD with the similar method as to detect the optimal nanoparticles.
smiles,measurement,setting,value
"CC(C)(C)c1cc(C(C)(C)C)c(NC(=O)c2c[nH]c3ccccc3c2=O)cc1O [Iva, Ivacaftor]",MIC,[1],8~32 mg/L
same,antimicrobial activity against PA,[2],significant antimicrobial activity
same,crystalline state (PXRD),[3],crystalline
